{"source": "paper PMC7827406", "about": "“Structure–Activity Relationship (SAR) Study of Spautin-1 to Entail the Discovery of Novel NEK4 Inhibitors” (International Journal of Molecular Sciences, 2021)", "assay_in_all_cases": "biochemical", "set-up_in_all_cases": "Eurofins KinaseProfiler full panel at Km ATP, residual kinase activity (%) relative to DMSO", "key": {"EGFR(T790M,L858R)(h)": {"molecular_target": "EGFR(T790M,L858R)(h) (Homo sapiens, UniProt P00533, L858R/T790M)", "sequence (P00533 whole entry T790M/L858R)": "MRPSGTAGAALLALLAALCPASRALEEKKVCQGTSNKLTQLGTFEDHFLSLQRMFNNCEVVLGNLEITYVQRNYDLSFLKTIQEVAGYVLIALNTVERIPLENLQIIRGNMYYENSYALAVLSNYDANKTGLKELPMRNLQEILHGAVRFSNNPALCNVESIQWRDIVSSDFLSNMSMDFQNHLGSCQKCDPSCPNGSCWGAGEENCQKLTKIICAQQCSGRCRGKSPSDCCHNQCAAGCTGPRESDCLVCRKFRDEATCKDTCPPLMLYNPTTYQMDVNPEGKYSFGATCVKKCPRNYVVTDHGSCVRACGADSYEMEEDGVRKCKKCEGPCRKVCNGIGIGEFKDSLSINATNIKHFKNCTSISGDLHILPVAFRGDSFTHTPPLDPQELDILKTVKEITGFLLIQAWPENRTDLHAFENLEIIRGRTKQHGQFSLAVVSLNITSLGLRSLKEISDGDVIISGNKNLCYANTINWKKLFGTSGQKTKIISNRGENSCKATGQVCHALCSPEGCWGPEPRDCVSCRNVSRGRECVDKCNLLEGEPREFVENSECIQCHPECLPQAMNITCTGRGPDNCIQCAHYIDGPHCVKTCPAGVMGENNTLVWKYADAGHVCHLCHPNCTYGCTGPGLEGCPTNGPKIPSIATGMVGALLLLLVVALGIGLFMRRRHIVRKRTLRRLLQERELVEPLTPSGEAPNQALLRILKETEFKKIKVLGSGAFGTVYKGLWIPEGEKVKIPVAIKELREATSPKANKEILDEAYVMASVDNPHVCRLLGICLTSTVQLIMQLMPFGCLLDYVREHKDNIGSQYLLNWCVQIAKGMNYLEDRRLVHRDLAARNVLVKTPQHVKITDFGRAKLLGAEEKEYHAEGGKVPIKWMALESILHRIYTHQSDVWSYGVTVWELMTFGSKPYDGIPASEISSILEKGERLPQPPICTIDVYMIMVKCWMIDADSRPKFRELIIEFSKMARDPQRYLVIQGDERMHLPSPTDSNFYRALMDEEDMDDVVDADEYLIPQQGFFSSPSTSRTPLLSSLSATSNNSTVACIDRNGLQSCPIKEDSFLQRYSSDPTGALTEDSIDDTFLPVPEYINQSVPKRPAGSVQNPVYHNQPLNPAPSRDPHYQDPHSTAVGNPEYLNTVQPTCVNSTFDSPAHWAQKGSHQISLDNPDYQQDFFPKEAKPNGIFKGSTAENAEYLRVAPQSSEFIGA", "outline": "(§1)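 Two 10 µM single-concentration screens were run: a competition-binding screen, in which DNA-tagged kinase bound to immobilized ligands was quantified by qPCR, and a radiometric activity panel at Km ATP. Each is expressed as residual kinase activity (%).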"}, "EphA8(h)": {"molecular_target": "T1, EphA8(h) (Homo sapiens, UniProt P29322)", "T1 sequence (P29322 1-1005)": "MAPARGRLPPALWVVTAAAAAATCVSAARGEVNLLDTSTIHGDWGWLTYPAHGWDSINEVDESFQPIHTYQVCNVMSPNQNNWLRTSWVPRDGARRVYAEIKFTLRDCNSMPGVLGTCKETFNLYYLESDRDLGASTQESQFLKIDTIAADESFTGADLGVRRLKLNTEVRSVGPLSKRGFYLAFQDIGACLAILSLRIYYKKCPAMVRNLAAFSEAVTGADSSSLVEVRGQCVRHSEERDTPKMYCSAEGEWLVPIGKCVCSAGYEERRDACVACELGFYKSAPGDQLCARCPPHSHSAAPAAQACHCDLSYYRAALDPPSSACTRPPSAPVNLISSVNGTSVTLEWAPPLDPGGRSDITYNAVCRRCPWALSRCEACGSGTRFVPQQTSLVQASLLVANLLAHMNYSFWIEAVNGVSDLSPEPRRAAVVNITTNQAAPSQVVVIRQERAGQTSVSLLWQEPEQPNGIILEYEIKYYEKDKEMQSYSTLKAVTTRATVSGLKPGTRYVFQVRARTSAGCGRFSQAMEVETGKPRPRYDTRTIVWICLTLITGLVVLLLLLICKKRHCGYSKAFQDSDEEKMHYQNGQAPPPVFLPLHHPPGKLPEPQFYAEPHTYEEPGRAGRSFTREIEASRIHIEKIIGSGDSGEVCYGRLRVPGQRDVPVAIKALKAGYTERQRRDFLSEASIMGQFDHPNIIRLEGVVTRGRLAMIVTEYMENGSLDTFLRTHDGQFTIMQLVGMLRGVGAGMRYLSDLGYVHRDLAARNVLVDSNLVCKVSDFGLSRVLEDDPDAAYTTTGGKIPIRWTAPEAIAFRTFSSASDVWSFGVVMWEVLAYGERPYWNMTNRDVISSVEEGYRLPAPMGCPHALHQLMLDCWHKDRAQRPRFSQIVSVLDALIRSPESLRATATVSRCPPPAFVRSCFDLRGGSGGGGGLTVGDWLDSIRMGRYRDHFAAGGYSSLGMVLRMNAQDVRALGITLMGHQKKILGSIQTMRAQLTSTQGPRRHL", "outline": "as §1"}, "NEK11(h)": {"molecular_target": "T2, NEK11(h) (Homo sapiens, UniProt Q8NG66)", "T2 sequence (Q8NG66 1-645)": "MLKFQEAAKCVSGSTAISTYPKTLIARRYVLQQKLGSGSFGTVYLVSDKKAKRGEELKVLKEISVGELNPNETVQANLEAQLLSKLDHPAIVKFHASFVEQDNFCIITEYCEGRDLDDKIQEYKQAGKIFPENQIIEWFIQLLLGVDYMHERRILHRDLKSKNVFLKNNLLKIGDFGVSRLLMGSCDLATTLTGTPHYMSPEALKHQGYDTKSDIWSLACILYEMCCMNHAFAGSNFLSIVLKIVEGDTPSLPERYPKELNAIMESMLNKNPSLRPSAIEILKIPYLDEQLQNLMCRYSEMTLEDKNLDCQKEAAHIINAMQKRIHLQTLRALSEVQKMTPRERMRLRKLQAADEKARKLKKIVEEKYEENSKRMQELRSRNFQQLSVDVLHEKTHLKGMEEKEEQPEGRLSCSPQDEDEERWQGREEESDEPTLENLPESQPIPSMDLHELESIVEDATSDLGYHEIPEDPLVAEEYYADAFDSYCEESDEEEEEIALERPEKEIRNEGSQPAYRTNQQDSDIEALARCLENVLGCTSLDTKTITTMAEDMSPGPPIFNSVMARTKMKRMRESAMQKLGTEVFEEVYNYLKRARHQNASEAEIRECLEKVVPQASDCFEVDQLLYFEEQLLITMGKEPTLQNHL", "outline": "as §1"}, "Syk(h)": {"molecular_target": "Syk(h) (Homo sapiens, UniProt P43405)", "outline": "as §1"}, "ZIPK(h)": {"molecular_target": "T3, ZIPK(h) (Homo sapiens, UniProt O43293)", "T3 construct": "gene DAPK3", "T3 sequence (O43293 whole entry)": "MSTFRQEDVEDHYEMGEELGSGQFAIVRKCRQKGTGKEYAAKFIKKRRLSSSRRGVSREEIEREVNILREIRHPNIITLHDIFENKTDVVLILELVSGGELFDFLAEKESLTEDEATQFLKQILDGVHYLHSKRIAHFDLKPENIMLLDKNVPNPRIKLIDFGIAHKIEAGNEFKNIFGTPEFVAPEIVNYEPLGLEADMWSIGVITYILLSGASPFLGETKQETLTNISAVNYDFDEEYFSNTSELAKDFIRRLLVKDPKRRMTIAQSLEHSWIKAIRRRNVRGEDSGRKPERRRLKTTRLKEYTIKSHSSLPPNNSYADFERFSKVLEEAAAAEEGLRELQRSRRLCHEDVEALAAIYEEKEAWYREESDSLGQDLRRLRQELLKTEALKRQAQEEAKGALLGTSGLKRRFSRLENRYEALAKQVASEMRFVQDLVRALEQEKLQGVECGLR", "outline": "as §1"}, "[1]": {"conditions": "read-out: Residual activity (%) 5ay"}, "[2]": {"conditions": "read-out: Residual activity (%) Spautin-1 5aa"}, "[3]": {"conditions": "read-out: Residual activity (%) 5at"}, "[4]": {"conditions": "read-out: Residual activity (%) 5as"}}, "note": "Like-named read-outs stand apart in the source and are kept apart here."}
{"smiles": "COc1ccc2ncnc(Nc3cccc(F)c3)c2c1", "note": "[5ay, N-(3-Fluorophenyl)-6-Methoxy-4-Quinazolinamine]", "values": [{"measurement": "remaining activity at 10 µM", "setting": "EGFR(T790M,L858R)(h); [1]", "value": 69, "unit": "%"}, {"measurement": "remaining activity at 10 µM", "setting": "EphA8(h); [1]", "value": 84, "unit": "%"}, {"measurement": "remaining activity at 10 µM", "setting": "NEK11(h); [1]", "value": 53, "unit": "%"}, {"measurement": "remaining activity at 10 µM", "setting": "Syk(h); [1]", "value": 110, "unit": "%"}, {"measurement": "remaining activity at 10 µM", "setting": "ZIPK(h); [1]", "value": 108, "unit": "%"}]}
{"smiles": "Fc1ccc(CNc2ncnc3ccc(F)cc23)cc1", "note": "[5aa, 6-Fluoro-N-(4-fluorobenzyl)-4-Quinazolinamine]", "values": [{"measurement": "remaining activity at 10 µM", "setting": "EGFR(T790M,L858R)(h); [2]", "value": 96, "unit": "%"}, {"measurement": "remaining activity at 10 µM", "setting": "EphA8(h); [2]", "value": 87, "unit": "%"}, {"measurement": "remaining activity at 10 µM", "setting": "NEK11(h); [2]", "value": 41, "unit": "%"}, {"measurement": "remaining activity at 10 µM", "setting": "Syk(h); [2]", "value": 113, "unit": "%"}, {"measurement": "remaining activity at 10 µM", "setting": "ZIPK(h); [2]", "value": 97, "unit": "%"}]}
{"smiles": "Fc1ccc2ncnc(NCCc3ccc(Cl)cc3)c2c1", "note": "[5at, N-[2-(4-Chlorophenyl)Ethyl]-6-Fluoro-4-Quinazolinamine]", "values": [{"measurement": "remaining activity at 10 µM", "setting": "EGFR(T790M,L858R)(h); [3]", "value": 85, "unit": "%"}, {"measurement": "remaining activity at 10 µM", "setting": "EphA8(h); [3]", "value": 71, "unit": "%"}, {"measurement": "remaining activity at 10 µM", "setting": "NEK11(h); [3]", "value": 45, "unit": "%"}, {"measurement": "remaining activity at 10 µM", "setting": "Syk(h); [3]", "value": 92, "unit": "%"}, {"measurement": "remaining activity at 10 µM", "setting": "ZIPK(h); [3]", "value": 109, "unit": "%"}]}
{"smiles": "Fc1ccc(CCNc2ncnc3ccc(F)cc23)cc1", "note": "[5as, 6-Fluoro-N-[2-(4-Fluorophenyl)Ethyl]-4-Quinazolinamine]", "values": [{"measurement": "remaining activity at 10 µM", "setting": "EGFR(T790M,L858R)(h); [4]", "value": 93, "unit": "%"}, {"measurement": "remaining activity at 10 µM", "setting": "EphA8(h); [4]", "value": 88, "unit": "%"}, {"measurement": "remaining activity at 10 µM", "setting": "NEK11(h); [4]", "value": 71, "unit": "%"}, {"measurement": "remaining activity at 10 µM", "setting": "Syk(h); [4]", "value": 84, "unit": "%"}, {"measurement": "remaining activity at 10 µM", "setting": "ZIPK(h); [4]", "value": 103, "unit": "%"}]}
